From ChEMBL document CHEMBL4387791, “Bioactive Polyketide Derivatives from the Mangrove-Derived Fungus Daldinia eschscholtzii HJ004” (J Nat Prod, 2019) come the findings set out here.

Assay [1] in a line: Inhibition of Saccharomyces cerevisiae alpha-glucosidase using PNP-G as substrate incubated for 20 mins followed by substrate addition.
For assay [2], the system named is Staphylococcus aureus. In words: Antibacterial activity against Staphylococcus aureus ATCC 25923 by microplate assay method. Format: functional, organism-based.
The subject of assay [3] is Staphylococcus aureus. In words: Antibacterial activity against methicillin-resistant Staphylococcus aureus ATCC 33591 by microplate assay method. Format: functional, organism-based.
Assay [4] deals with Staphylococcus epidermidis. Description: Antibacterial activity against Staphylococcus albus ATCC 8032 by microplate assay method. Format: functional, organism-based.
The subject of the next assay is Vibrio alginolyticus. Description: Antibacterial activity against Vibrio alginolyticus ATCC 17802 by microplate assay method. Format: functional, organism-based.
The test system of another assay is Vibrio parahaemolyticus. Description: Antibacterial activity against Vibrio parahaemolyticus ATCC 17749 by microplate assay method. Format: functional, organism-based.

Structures are written as SMILES. Activity calls are given as the source filed them. The calls are words filed in the database; no cut-off is given here.

`COc1cc(O)cc2oc(C)c(C)c(=O)c12` displayed an IC50 in assay [1] of 13 µM. Also, the result (in the assay with Staphylococcus aureus [2]; in the assay on Staphylococcus aureus [3]; in assay [4]; in the assay with Vibrio alginolyticus; in the assay on Vibrio parahaemolyticus) was inactive.
In turn, `C/C=C(\C)[C@@H]1OC(=O)C(C)(C)[C@@H](O)[C@H]1C` yielded an IC50 in assay [1] of 16 µM. In addition, the outcome (in the assay with Staphylococcus aureus [2]; in the assay with Staphylococcus aureus [3]; in assay [4]; with Vibrio alginolyticus; in the assay with Vibrio parahaemolyticus) was inactive.
Take `CCc1ccc2c(c1O)C(=O)[C@](O)(CC)[C@@H](O)C2`: the IC50 in assay [1] worked out at 38 µM. The outcome (in the assay on Staphylococcus aureus [2]; in the assay with Staphylococcus aureus [3]; in assay [4]; in the assay with Vibrio alginolyticus; in the assay on Vibrio parahaemolyticus) was inactive.
Compound `O=C1CC[C@H](O)c2cccc(O)c21` displayed an IC50 in assay [1] of 70 µM. Moreover, the result (in the assay on Staphylococcus aureus [2]; in the assay with Staphylococcus aureus [3]; in assay [4]; in the assay on Vibrio alginolyticus; in the assay with Vibrio parahaemolyticus) was inactive.
On to `C[C@H]1O[C@H](O[C@H]2[C@H](O)[C@@H](O)[C@@H](O[C@H]3[C@H](O)[C@@H](O)C(O)O[C@@H]3CO)O[C@@H]2CO)[C@H](O)[C@@H](O)[C@@H]1N[C@H]1C=C(CO)[C@@H](O)[C@H](O)[C@H]1O` (stereo partly specified) [ACARBOSE], for which, in assay [1], the IC50 was determined as 3 µM.
With `CCCc1cc(=O)c2c(OC)cccc2o1`, in assay [1], half-maximal inhibition (IC50) was put at 84 µM. Further, the result (in the assay on Staphylococcus aureus [2]; in the assay with Staphylococcus aureus [3]; in assay [4]; with Vibrio alginolyticus; in the assay on Vibrio parahaemolyticus) was inactive.
Turning to `Cc1cc2c(c(O)c1C)C(=O)C[C@@H](O)[C@H]2O` (relative stereo), in assay [1], the IC50 came out at 21 µM. The outcome (with Staphylococcus aureus [2]; with Staphylococcus aureus [3]; in assay [4]; in the assay with Vibrio alginolyticus; in the assay with Vibrio parahaemolyticus) was inactive.
On to `C/C(=C\CO)[C@@H]1OC(=O)C(C)(C)[C@@H](O)[C@H]1C`, for which the IC50 in assay [1] is 20 µM. For the same compound, the result (in the assay with Staphylococcus aureus [2]; with Staphylococcus aureus [3]; in assay [4]; in the assay on Vibrio alginolyticus; with Vibrio parahaemolyticus) was inactive.
Turning to `CCc1c(OC)cc2c(c1O)C(=O)[C@H](C)[C@@H](C)[C@H]2O`, it took 155 µM to reach half-maximal inhibition in assay [1] (IC50). Further, the outcome (with Staphylococcus aureus [2]; in the assay on Staphylococcus aureus [3]; in assay [4]; in the assay with Vibrio alginolyticus; in the assay with Vibrio parahaemolyticus) was inactive.
Take `COc1cccc2c1C(=O)CC(C)O2` (stereo unspecified): the IC50 in assay [1] is 15 µM. The result (in the assay on Staphylococcus aureus [2]; with Staphylococcus aureus [3]; in assay [4]; in the assay with Vibrio alginolyticus; in the assay on Vibrio parahaemolyticus) was inactive.
In turn, `CCc1c(OC)cc2c(=O)c(C)c(C)oc2c1O` came in with an IC50 in assay [1] of 100 µM. Further, the result (in the assay with Staphylococcus aureus [2]; in the assay with Staphylococcus aureus [3]; in assay [4]; with Vibrio alginolyticus; in the assay on Vibrio parahaemolyticus) was inactive.
Compound `C/C=C(\C)[C@@H]1OC(=O)C(C)(C)[C@H](O)[C@H]1C` yielded an IC50 in assay [1] of 31 µM. For the same compound, the outcome (in the assay on Staphylococcus aureus [2]; with Staphylococcus aureus [3]; in assay [4]; with Vibrio alginolyticus; in the assay on Vibrio parahaemolyticus) was inactive.
Turning to `COc1cccc2c1[C@H](O)CCC2=O`, the IC50 in assay [1] came to 90 µM. Moreover, the result (in the assay with Staphylococcus aureus [2]; in the assay on Staphylococcus aureus [3]; in assay [4]; in the assay on Vibrio alginolyticus; in the assay with Vibrio parahaemolyticus) was inactive.
`CCc1c(OC)cc2c(c1O)C(=O)[C@H](C)[C@@H](C)[C@@H]2O` had a half-maximal inhibitory concentration (IC50) in assay [1] of 35 µM. Moreover, the outcome (in the assay on Staphylococcus aureus [2]; with Staphylococcus aureus [3]; in assay [4]; with Vibrio alginolyticus; in the assay with Vibrio parahaemolyticus) was inactive.
Compound `CCc1c(O)cc2c(=O)oc(C)c(C)c(=O)c2c1OC` gave a half-maximal inhibitory concentration (IC50) in assay [1] of 54 µM. Moreover, the result (with Staphylococcus aureus [2]; in the assay on Staphylococcus aureus [3]; in assay [4]; with Vibrio alginolyticus; in the assay on Vibrio parahaemolyticus) was inactive.
For `CC(=O)OC/C=C(\C)[C@@H]1OC(=O)C(C)(C)[C@@H](O)[C@H]1C`, in assay [1], the IC50 was 240 µM. The outcome (in the assay with Staphylococcus aureus [2]; with Staphylococcus aureus [3]; in assay [4]; in the assay on Vibrio alginolyticus; with Vibrio parahaemolyticus) was inactive.
